Key:
Conditions in all cases: incubation time: 72 h
BT-474 [1] = test: normalised viability (% of control), CellTiter-Blue; higher = more viable cells (about 100 = DMSO control)
Description: (§1)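 DSRT, CellTiter-Blue viability, 72 h incubation. Signal is normalised to DMSO and benzethonium chloride controls. Value is the normalised response at dose 3.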

CAL-120 [2] = test: as above
Description: as §1

CAL-51 [3] = test: as above
Description: as §1

Hs578T = test: drug sensitivity score (DSS), CellTiter-Blue viability (DSS (AUC-based score)); higher = stronger viability inhibition; extreme values may be limits of the assay
Description: (§2)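 DSRT with the CellTiter-Blue (resazurin reduction) viability readout, fluorescence 560/590 nm, 72 h incubation. Plates were normalised to DMSO and benzethonium chloride controls. DSS is computed from the area under the fitted dose-response curve (5 or 9 concentrations).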

CAL-148 = test: as above
Description: as §2

MFM-223 = test: as above
Description: as §2

HDQ-P1 = test: as above
Description: as §2

BT-474 [4] = test: as above
Description: as §2

MDA-MB-468 = test: as above
Description: as §2

SK-BR-3 = test: as above
Description: as §2

BT-549 = test: as above
Description: as §2

MDA-MB-231 = test: as above
Description: as §2

HCC1143 = test: as above
Description: as §2

HCC1599 = test: as above
Description: as §2

CAL-85-1 = test: as above
Description: as §2

HCC1937 = test: as above
Description: as §2

CAL-120 [5] = test: as above
Description: as §2

MDA-MB-453 = test: as above
Description: as §2

CAL-51 [6] = test: as above
Description: as §2

DU-4475 = test: as above
Description: as §2

MDA-MB-436 = test: as above
Description: as §2

Compound	normalised viability (BT-474 [1]; 10 nM) [%]	normalised viability (CAL-120 [2]; 10 nM) [%]	normalised viability (CAL-51 [3]; 1 nM) [%]	drug sensitivity score (Hs578T)	drug sensitivity score (CAL-148)	drug sensitivity score (MFM-223)	drug sensitivity score (HDQ-P1)	drug sensitivity score (BT-474 [4])	drug sensitivity score (MDA-MB-468)	drug sensitivity score (SK-BR-3)	drug sensitivity score (BT-549)	drug sensitivity score (MDA-MB-231)	drug sensitivity score (HCC1143)	drug sensitivity score (HCC1599)	drug sensitivity score (CAL-85-1)	drug sensitivity score (HCC1937)	drug sensitivity score (CAL-120 [5])	drug sensitivity score (MDA-MB-453)	drug sensitivity score (CAL-51 [6])	drug sensitivity score (DU-4475)	drug sensitivity score (MDA-MB-436)	normalised viability (BT-474 [1]; 100 nM) [%]	normalised viability (CAL-120 [2]; 100 nM) [%]	normalised viability (CAL-51 [3]; 10 nM) [%]	normalised viability (BT-474 [1]; 400 nM) [%]	normalised viability (CAL-120 [2]; 400 nM) [%]	normalised viability (CAL-51 [3]; 40 nM) [%]
Cc1ccc(C(=O)Nc2ccc(CN3CCN(C)CC3)c(C(F)(F)F)c2)cc1C#Cc1cnc2cccnn12 [Ponatinib]	103	105	96.6	0.512	0.922	14.6	4.79	0	0	0	0.903	7.46	0	2.44	0	0	7.25	5.67	3.79	0	0	–	–	–	–	–	–
CN[C@@H]1C[C@H]2O[C@@](C)([C@@H]1OC)n1c3ccccc3c3c4c(c5c6ccccc6n2c5c31)C(=O)N[C@H]4O [UCN-01]	–	–	–	29.2	7	14.7	19.9	12.2	22.4	23	22.4	24.5	22.2	17	17.3	20	24.2	18.2	20.4	19.5	12.4	94.6	30.4	97.5	–	–	–
C[C@@H](Oc1cc(-c2cnn(C3CCNCC3)c2)cnc1N)c1c(Cl)ccc(F)c1Cl [Crizotinib]	–	–	–	1.65	2.67	4.74	1.42	5.02	4.88	4.22	1.89	9.17	2.03	0	3.39	6.92	6.42	8.6	4.08	3.43	14.8	92.7	96.8	107	–	–	–
CC1(C)NC(=O)N(c2ccc([N+](=O)[O-])c(C(F)(F)F)c2)C1=O [Nilutamide]	–	–	–	0	0	0	0	0	0	0	0	0	0	0	0	0	0	0	0	0	0	119	99.4	101	–	–	–
CNCc1ccc(-c2[nH]c3cc(F)cc4c3c2CCNC4=O)cc1 [Rucaparib]	–	–	–	0	1.96	1.28	0	0	0	0	0	2.45	0	0	0	6.08	0	2.23	1.41	0	0	100	93.3	114	–	–	–
C[C@]12CC[C@@H]3c4ccc(O)cc4C[C@@H](CCCCCCCCC[S+]([O-])CCCC(F)(F)C(F)(F)F)[C@H]3[C@@H]1CC[C@@H]2O (some centres not stated) [Fulvestrant]	–	–	–	0	0	1.05	0	0	0	0	0	0	0	0	0	0	0	0	0	0	0	89.2	78.5	112	–	–	–
CN(C)/N=N/c1[nH]cnc1C(N)=O [Dacarbazine]	–	–	–	0	0	0	0	0	0	0	0	0	0	0	0	0	0	0	0	0	0	117	77.9	85.9	–	–	–
CC(C)Cn1cnc2c(N)nc3ccccc3c21 [Imiquimod]	–	–	–	0	0	0	0	0	0	0	0	0	0	0	0	0	0	0.443	0	0	0	101	98.5	102	–	–	–
C#Cc1cccc(Nc2ncnc3cc(OCCOC)c(OCCOC)cc23)c1 [Erlotinib]	–	–	–	0	5.88	0	7.17	4.23	5.57	3.78	0	0	0	3.83	8.53	4.19	3.43	2.55	0	0	2.82	103	102	102	–	–	–
N[C@@H](CSC(c1ccccc1)(c1ccccc1)c1ccccc1)C(=O)O [S-trityl-L-cysteine]	–	–	–	12.9	0	0	0	4.93	12	15.5	2.15	14.7	1.21	0	0	16.4	10.4	0	0	0	4.31	–	–	–	109	110	87.4
O=P1(NCCCl)OCCCN1CCCl (configuration not stated) [Ifosfamide]	–	–	–	0	0	0	0	0	0	0	0	0	0	0	0	0	0	0	0	0	0	120	91.2	107	–	–	–
Cc1ccc(-n2nc(C(C)(C)C)cc2NC(=O)Nc2ccc(OCCN3CCOCC3)c3ccccc23)cc1 [Doramapimod]	–	–	–	0	0	0	0	0	0	0	0	0	0	0	6.15	0	0	0	0	0	0	93.8	87.3	110	–	–	–
Cn1c(Nc2ccc(C(F)(F)F)cc2)nc2cc(Oc3ccnc(-c4ncc(C(F)(F)F)[nH]4)c3)ccc21 [RAF265]	103	82.2	92.9	1.15	0	5.45	9.94	0	0.566	0	5.55	4.5	7.68	0	0	4.12	6.51	0	3.43	3.23	2.55	–	–	–	–	–	–
COc1cc([C@@H]2c3cc4c(cc3[C@@H](O[C@@H]3O[C@@H]5CO[C@@H](C)O[C@H]5[C@H](O)[C@H]3O)[C@H]3COC(=O)[C@H]23)OCO4)cc(OC)c1O [Etoposide]	–	–	–	5.23	10.3	0	3.32	0.298	6.16	11.9	11	3.4	7.4	2.06	2.33	6.25	4.94	0	14.5	19.8	3.41	108	90.8	91.1	–	–	–
CN(N=O)C(=O)N[C@@H](C=O)[C@@H](O)[C@H](O)[C@H](O)CO [Streptozocin]	–	–	–	0	0	0	0	0	0	0	0	0	0	0	0	3.78	0	0	0	0	0	104	105	109	–	–	–
Cc1ccc(C(=O)N(CCCN)[C@@H](c2oc3cc(Cl)ccc3c(=O)c2Cc2ccccc2)C(C)C)cc1	30.3	31.1	103	25.7	23.3	18.1	10.1	21.6	23.8	31.6	24.4	31.2	19.5	0	19.9	29.8	27.6	21.5	20.1	20.2	13.4	–	–	–	–	–	–
CCC1=C[C@@H]2CN(C1)Cc1c([nH]c3ccccc13)[C@@](C(=O)OC)(c1cc3c(cc1OC)N(C)[C@H]1[C@@](O)(C(=O)OC)[C@H](OC(C)=O)[C@]4(CC)C=CCN5CC[C@]31[C@@H]54)C2 [Vinorelbine]	–	–	–	24.6	22.5	18.4	16.5	16.1	18.2	26	25.6	22.8	16.8	9.76	20.9	25.3	24.4	26.1	19.6	15.8	16.5	43.6	30.6	99.9	–	–	–

Reference: the supplement of paper PMC4862054
